# Reference: patent EP2857388A1, “Azoles containing sulfone” (Grünenthal GmbH, priority 2013, dated 2015)
# Molecular target: T1, human B1R (Homo sapiens, UniProt P46663)
# T1 construct: expressed in transfected cells; host or cells: CHO K1 cells (Chinese Hamster Ovary), stably transfected
# T1 sequence (P46663 1-353): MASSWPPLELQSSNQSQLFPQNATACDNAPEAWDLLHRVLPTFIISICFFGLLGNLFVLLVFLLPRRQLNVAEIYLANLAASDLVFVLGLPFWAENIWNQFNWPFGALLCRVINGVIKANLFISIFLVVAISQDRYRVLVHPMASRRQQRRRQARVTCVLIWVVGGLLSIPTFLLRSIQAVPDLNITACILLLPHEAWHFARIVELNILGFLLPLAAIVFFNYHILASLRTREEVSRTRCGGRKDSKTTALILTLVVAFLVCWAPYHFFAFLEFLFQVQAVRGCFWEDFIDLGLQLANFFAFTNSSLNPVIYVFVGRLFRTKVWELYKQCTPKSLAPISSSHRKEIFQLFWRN
# Experiment: Functional assay at bradykinin receptor 1 (B1R): Ca2+ fluorescence (Fluo-4) in FLIPR/Novostar, antagonist mode
# Format: cell-based
# Settings: test substance 10 µM; CHO K1 cells stably transfected with human B1R gene (hB1R-Zellen); agonist Lys-Des-Arg9-Bradykinin at EC80; % inhibition relative to maximal achievable inhibition; read-out: % Inhibierung (human B1R) bei 10 µM
# Method in brief: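 CHO K1 cells stably expressing human B1R were loaded with Fluo-4 and preincubated 6–20 min with test compound before Lys-Des-Arg9-bradykinin at its EC80. Peak fluorescence (ex 488/em 540 nm) gave % inhibition versus maximal inhibition; IC50 from several concentrations, n=2 or 3.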
row,inhibition at 10 µM [%],Compound
1,89,"Cc1cccc(Cl)c1S(=O)(=O)Cc1noc(CC(=O)N(C)[C@H]2CCC[C@@H](N3CCN(C)CC3)C2)n1 [SC-50, 2-[3-[[(2-Chlor-6-methyl-phenyl)sulfonyl]-methyl]-[1,2,4]oxadiazol-5-yl]-N-methyl-N-[(1S,3R)-3-(4-methyl-piperazin-1-yl)-cyclohexyl]-acetamid]"
2,100,"COc1cc(C)c(S(=O)(=O)Cc2noc(CC(=O)N(C)C3CCN(Cc4ccc(OC)nc4)CC3)n2)c(C)c1 [SC-55, 2-[3-[[(4-Methoxy-2,6-dimethyl-phenyl)sulfonyl]-methyl]-[1,2,4]oxadiazol-5-yl]-N-[1-[(6-methoxy-pyridin-3-yl)-methyl]-piperidin-4-yl]-N-methyl-acetamid]"
3,100,"COc1cc(C)c(S(=O)(=O)Cc2noc(CC(=O)N(C)C3CCN(Cc4ccnc(N5CCCC5)c4)CC3)n2)c(C)c1 [SC-57, 2-[3-[[(4-Methoxy-2,6-dimethyl-phenyl)sulfonyl]-methyl]-[1,2,4]oxadiazol-5-yl]-N-methyl-N-[1-[(2-pyrrolidin-1-yl-pyridin-4-yl)-methyl]-piperidin-4-yl]-acetamid]"
4,100,"COc1cc(C)c(S(=O)(=O)Cc2noc(CC(=O)N(C)C3CCC(N4CCN(C)CC4)CC3)n2)c(C)c1 (centres unmarked) [SC-58, 2-[3-[[(4-Methoxy-2,6-dimethyl-phenyl)sulfonyl]-methyl]-[1,2,4]oxadiazol-5-yl]-N-methyl-N-[4-(4-methyl-piperazin-1-yl)-cyclohexyl]-acetamid]"
5,100,"COc1cc(C)c(S(=O)(=O)Cc2noc(C(=O)N3CCN(Cc4ccc(OC)nc4)CC3)n2)c(C)c1 [SC-59, [3-[[(4-Methoxy-2,6-dimethyl-phenyl)sulfonyl]-methyl]-[1,2,4]oxadiazol-5-yl]-[4-[(6-methoxy-pyridin-3-yl)-methyl]-piperazin-1-yl]-methanon]"
6,99,"COc1cc(C)c(S(=O)(=O)Cc2noc(C(=O)N3CCN(Cc4ccnc(N5CCCC5)c4)CC3)n2)c(C)c1 [SC-60, [3-[[(4-Methoxy-2,6-dimethyl-phenyl)sulfonyl]-methyl]-[1,2,4]oxadiazol-5-yl]-[4-[(2-pyrrolidin-1-yl-pyridin-4-yl)-methyl]-piperazin-1-yl]-methanon]"
7,100,"COc1cc(C)c(S(=O)(=O)Cc2noc(C(=O)N3CCN(Cc4ccc(N5CCCC5)nc4)CC3)n2)c(C)c1 [SC-61, [3-[[(4-Methoxy-2,6-dimethyl-phenyl)sulfonyl]-methyl]-[1,2,4]oxadiazol-5-yl]-[4-[(6-pyrrolidin-1-yl-pyridin-3-yl)-methyl]-piperazin-1-yl]-methanon]"
8,100,"COc1cc(C)c(S(=O)(=O)Cc2noc(CC(=O)N(C)C3CCN(c4ncnc5ccccc45)CC3)n2)c(C)c1 [SC-63, 2-[3-[[(4-Methoxy-2,6-dimethyl-phenyl)sulfonyl]-methyl]-[1,2,4]oxadiazol-5-yl]-N-methyl-N-(1-chinazolin-4-yl-piperidin-4-yl)-acetamid]"
9,100,"COc1cc(C)c(S(=O)(=O)Cc2noc(CC(=O)N(C)C3CCC(N4CCC(OC)CC4)CC3)n2)c(C)c1 (centres unmarked) [SC-64, 2-[3-[[(4-Methoxy-2,6-dimethyl-phenyl)sulfonyl]-methyl]-[1,2,4]oxadiazol-5-yl]-N-[4-(4-methoxy-piperidin-1-yl)-cyclohexyl]-N-methyl-acetamid]"
10,100,"COc1cc(C)c(S(=O)(=O)Cc2noc(CC(=O)N(C)C3CCN(Cc4ccc(N5CCCC5)nc4)CC3)n2)c(C)c1 [SC-65, 2-[3-[[(4-Methoxy-2,6-dimethyl-phenyl)sulfonyl]-methyl]-[1,2,4]oxadiazol-5-yl]-N-methyl-N-[1-[(6-pyrrolidin-1-yl-pyridin-3-yl)-methyl]-piperidin-4-yl]-acetamid]"
11,100,"COc1cc(C)c(S(=O)(=O)Cc2noc(CC(=O)N(C)C3CCN(c4ccnc(N(C)C)n4)CC3)n2)c(C)c1 [SC-66, N-[1-(2-Dimethylamino-pyrimidin-4-yl)-piperidin-4-yl]-2-[3-[[(4-methoxy-2,6-dimethyl-phenyl)-sulfonyl]-methyl]-[1,2,4]oxadiazol-5-yl]-N-methyl-acetamid]"
12,100,"COc1cc(C)c(S(=O)(=O)Cc2noc(CC(=O)N(C)C3CCN(c4ccnc(N(C)C)c4)CC3)n2)c(C)c1 [SC-67, N-[1-(2-Dimethylamino-pyridin-4-yl)-piperidin-4-yl]-2-[3-[[(4-methoxy-2,6-dimethyl-phenyl)-sulfonyl]-methyl]-[1,2,4]oxadiazol-5-yl]-N-methyl-acetamid]"
13,100,"COc1cc(C)c(S(=O)(=O)Cc2noc(C(=O)N(C)C3CCN(c4ccnc(N(C)C)n4)CC3)n2)c(C)c1 [SC-68, N-[1-(2-Dimethylamino-pyrimidin-4-yl)-piperidin-4-yl]-3-[[(4-methoxy-2,6-dimethyl-phenyl)sulfonyl]-methyl]-N-methyl-[1,2,4]oxadiazol-5-carbonsäure amid]"
14,100,"COc1cc(C)c(S(=O)(=O)Cc2noc(C(=O)N(C)C3CCN(c4ccnc(N(C)C)c4)CC3)n2)c(C)c1 [SC-69, N-[1-(2-Dimethylamino-pyridin-4-yl)-piperidin-4-yl]-3-[[(4-methoxy-2,6-dimethyl-phenyl)sulfonyl]-methyl]-N-methyl-[1,2,4]oxadiazol-5-carbonsäure amid]"
15,100,"COc1cc(C)c(S(=O)(=O)Cc2noc(CC(=O)N(C)C3CCN(c4ccncc4F)CC3)n2)c(C)c1 [SC-70, N-[1-(3-Fluor-pyridin-4-yl)-piperidin-4-yl]-2-[3-[[(4-methoxy-2,6-dimethyl-phenyl)sulfonyl]-methyl]-[1,2,4]oxadiazol-5-yl]-N-methyl-acetamid]"
16,100,"COc1cc(C)c(S(=O)(=O)Cc2noc(CC(=O)N(C)C3CCN(Cc4cc(C)no4)CC3)n2)c(C)c1 [SC-72, 2-[3-[[(4-Methoxy-2,6-dimethyl-phenyl)sulfonyl]-methyl]-[1,2,4]oxadiazol-5-yl]-N-methyl-N-[1-[(3-methyl-isoxazol-5-yl)-methyl]-piperidin-4-yl]-acetamid]"
17,98,"COc1cc(C)c(S(=O)(=O)Cc2noc(C(=O)N(C)C3CCN(c4ccncc4F)CC3)n2)c(C)c1 [SC-82, N-[1-(3-Fluor-pyridin-4-yl)-piperidin-4-yl]-3-[[(4-methoxy-2,6-dimethyl-phenyl)sulfonyl]-methyl]-N-methyl-[1,2,4]oxadiazol-5-carbonsäure amid]"

row,Compound,inhibition at 10 µM [%]
1,"COc1cc(C)c(S(=O)(=O)Cc2noc(CC(=O)N3CCN(Cc4ccc(OC)nc4)CC3)n2)c(C)c1 [SC-51, 2-[3-[[(4-Methoxy-2,6-dimethyl-phenyl)sulfonyl]-methyl]-[1,2,4]oxadiazol-5-yl]-1-[4-[(6-methoxy-pyridin-3-yl)-methyl]-piperazin-1-yl]-ethanon]",100
2,"COc1cc(C)c(S(=O)(=O)Cc2noc(CC(=O)N3CCN(Cc4ccnc(N5CCCC5)c4)CC3)n2)c(C)c1 [SC-52, 2-[3-[[(4-Methoxy-2,6-dimethyl-phenyl)sulfonyl]-methyl]-[1,2,4]oxadiazol-5-yl]-1-[4-[(2-pyrrolidin-1-yl-pyridin-4-yl)-methyl]-piperazin-1-yl]-ethanon]",100
3,"COc1cc(C)c(S(=O)(=O)Cc2noc(CC(=O)N3CCN(Cc4ccc(N5CCCC5)nc4)CC3)n2)c(C)c1 [SC-62, 2-[3-[[(4-Methoxy-2,6-dimethyl-phenyl)sulfonyl]-methyl]-[1,2,4]oxadiazol-5-yl]-1-[4-[(6-pyrrolidin-1-yl-pyridin-3-yl)-methyl]-piperazin-1-yl]-ethanon]",100
